{
  "source": "patent US11472766B2",
  "about": "“Lipid nanoparticle composition” (Suzhou Abogen Biosciences Co., Ltd., priority 2020, dated 2022)",
  "key": {"[1]": {"test_system": "human erythropoietin (hEPO) mRNA", "assay": "Animal study: hEPO expression after tail vein injection of LNPs encapsulating hEPO mRNA (serum ELISA)", "type": "in vivo", "conditions": "hEPO level, female ICR mice, 0.5 mg/kg, 6 hours post administration, Table 2", "method_in_brief": "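Female ICR mice (6-8 weeks) received LNPs carrying hEPO mRNA by tail vein injection at 0.5 mg/kg, with MC3 LNPs dosed the same way as positive control. Blood was drawn at set times (e.g., 6 h) and serum separated. hEPO was quantified by ELISA and reported as μg/ml.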"}, "[2]": {"assay": "Encapsulation efficiency of lipid nanoparticles (Quant-it Ribogreen RNA quantification assay)", "type": "physicochemical", "conditions": "LNP encapsulating hEPO mRNA; Table 2", "method_in_brief": "(§1)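 Lipids 50:10:38.5:1.5 (cationic:DSPC:chol:PEG) in EtOH + mRNA in citrate pH 4, 1:3 vol, microfluidic, 9–30 mL/min; total lipid:mRNA ~10:1–30:1 w/w. Dialysis to DPBS, 0.2 μm filter. DLS 173° backscatter; Ribogreen encapsulation.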"}, "[3]": {"assay": "Lipid nanoparticle size by dynamic light scattering (Malvern Zetasizer Nano ZS)", "type": "physicochemical", "conditions": "LNP: cationic lipid/DSPC/cholesterol/PEG-lipid 50:10:38.5:1.5, hEPO mRNA; Table 2", "method_in_brief": "as §1"}, "[4]": {"assay": "Apparent pKa of LNP formulations (TNS fluorescence assay)", "conditions": "LNP cationic lipid/DSPC/cholesterol/DMG-PEG 50/10/38.5/1.5 mol %, Table 2"}},
  "data": [
    {"smiles": "CCCCCCCCC(CCCCCC)COC(=O)CCCCCN(CCCCCC(=O)OCC(CCCCCC)CCCCCCCC)CCN(C)CCO", "note": "(stereo not drawn) [Compound B]", "values": [
      {"measurement": "Expression at 6 h", "setting": "[1]", "result": 0.44, "unit": "µg/mL"},
      {"measurement": "Encapsulation Efficiency", "setting": "[2]", "result": 100.0, "unit": "%"},
      {"measurement": "polydispersity", "setting": "[3]", "result": 0.060},
      {"measurement": "size nm", "setting": "[3]", "result": 79.0, "unit": "nm"},
      {"measurement": "Apparant Pka", "setting": "[4]", "result": 7.33}
    ]},
    {"smiles": "CCCCCCCCC(CCCCCC)COC(=O)CCCCCN(CCCCCC(=O)OCC(CCCCCC)CCCCCCCC)CCN(CCO)CCCC", "note": "(stereo not drawn) [Compound C]", "values": [
      {"measurement": "Expression at 6 h", "setting": "[1]", "result": 2.95, "unit": "µg/mL"},
      {"measurement": "Encapsulation Efficiency", "setting": "[2]", "result": 96.9, "unit": "%"},
      {"measurement": "polydispersity", "setting": "[3]", "result": 0.061},
      {"measurement": "size nm", "setting": "[3]", "result": 65.0, "unit": "nm"},
      {"measurement": "Apparant Pka", "setting": "[4]", "result": 6.46}
    ]},
    {"smiles": "CCCCCCCCC(CCCCCC)COC(=O)CCCCCN(CCCCCC(=O)OCC(CCCCCC)CCCCCCCC)CCN(CCO)CCCCCC", "note": "(stereo not drawn) [Compound D]", "values": [
      {"measurement": "Expression at 6 h", "setting": "[1]", "result": 1.02, "unit": "µg/mL"},
      {"measurement": "Encapsulation Efficiency", "setting": "[2]", "result": 95.5, "unit": "%"},
      {"measurement": "polydispersity", "setting": "[3]", "result": 0.118},
      {"measurement": "size nm", "setting": "[3]", "result": 59.2, "unit": "nm"},
      {"measurement": "Apparant Pka", "setting": "[4]", "result": 6.28}
    ]}
  ]
}
